Measured values from ChEMBL document CHEMBL3045345, “Computer simulation of the in vitro and in vivo anti-inflammatory activities of dihydropyrimidines acid derivatives through the inhibition of cyclooxygenase-2” (Med Chem Res, 2013).
The source made the active and inactive calls. The calls are words filed in the database; no cut-off is given here.

Tests used:
Rattus norvegicus [1] = assay: Anti-inflammatory activity in Rattus norvegicus (rat) assessed as inhibition of carrageenan-induced paw edema at 100 mg/kg, po treated 60 min prior to carrageenan injection measured after 1 to 5 hr; format: functional
Rattus norvegicus [2] = assay: Anti-inflammatory activity in Rattus norvegicus (rat) assessed as inhibition of carrageenan-induced paw edema at 100 mg/kg, po treated 60 min prior to carrageenan injection measured after 1 to 5 hr relative to ibuprofen; format: functional
[3] = target: T1, Prostaglandin G/H synthase 1 (Ovis aries, UniProt P05979); assay: Inhibition of Ovis aries (sheep) COX-1 assessed as decrease in PGF2a production from PGH2 upon reduction with stannous chloride using arachidonic acid as substrate pre-incubated with enzyme for 5 min prior to substrate addition by enzyme immunoassay
T1 sequence (P05979 whole entry): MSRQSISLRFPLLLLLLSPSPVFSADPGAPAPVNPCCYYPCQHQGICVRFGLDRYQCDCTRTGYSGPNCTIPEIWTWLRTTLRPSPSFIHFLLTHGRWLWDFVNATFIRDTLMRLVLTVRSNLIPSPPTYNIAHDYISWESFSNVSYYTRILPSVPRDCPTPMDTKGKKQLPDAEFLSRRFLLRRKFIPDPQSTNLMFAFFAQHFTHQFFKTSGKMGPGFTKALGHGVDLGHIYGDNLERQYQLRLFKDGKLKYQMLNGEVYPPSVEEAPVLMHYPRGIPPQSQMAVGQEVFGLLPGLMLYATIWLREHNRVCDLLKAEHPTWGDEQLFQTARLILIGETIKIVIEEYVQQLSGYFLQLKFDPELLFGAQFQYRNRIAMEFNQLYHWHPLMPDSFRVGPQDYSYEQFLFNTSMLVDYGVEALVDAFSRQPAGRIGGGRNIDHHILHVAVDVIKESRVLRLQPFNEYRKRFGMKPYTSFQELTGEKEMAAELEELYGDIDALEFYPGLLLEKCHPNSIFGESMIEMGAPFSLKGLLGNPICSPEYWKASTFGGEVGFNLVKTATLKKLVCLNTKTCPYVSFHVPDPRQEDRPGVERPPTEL

| IC50 [3] [µM] | Structure (SMILES) | inhibition (Rattus norvegicus [1]) | inhibition in vivo at 100 mg/kg (Rattus norvegicus [1]) [%] | inhibition in vivo at 100 mg/kg (Rattus norvegicus [2]) [%] |
| --- | --- | --- | --- | --- |
| – | O=C1NC(/C=C/c2ccc([N+](=O)[O-])cc2)=C(C(=O)O)C(c2ccc([N+](=O)[O-])cc2)N1 (centres undefined) | inactive | – | – |
| – | O=C(O)C1=C(/C=C/c2ccc(O)cc2)NC(=S)NC1c1ccc(O)cc1 (centres undefined) | inactive | – | – |
| 14.3 | COc1ccc(/C=C/C2=C(C(=O)O)C(c3ccc(OC)cc3)NC(=S)N2)cc1 (centres undefined) | – | 38 | 38 |
| – | CN(C)c1ccc(/C=C/C2=C(C(=O)O)C(c3ccc(N(C)C)cc3)NC(=O)N2)cc1 (centres undefined) | inactive | – | – |
| 14.7 | COc1ccc(/C=C/C2=C(C(=O)O)C(c3ccc(OC)cc3)NC(=O)N2)cc1 (centres undefined) | – | 23 | 41 |
| – | CC(C)Cc1ccc(C(C)C(=O)O)cc1 (centres undefined) [IBUPROFEN] | – | 56 | – |
| – | CN(C)c1ccc(/C=C/C2=C(C(=O)O)C(c3ccc(N(C)C)cc3)NC(=S)N2)cc1 (centres undefined) | inactive | – | – |
| – | O=C1NC(/C=C/c2ccccc2)=C(C(=O)O)C(c2ccccc2)N1 (centres undefined) | – | 16 | – |
| – | O=C1NC(/C=C/c2ccc(O)cc2)=C(C(=O)O)C(c2ccc(O)cc2)N1 (centres undefined) | – | 12 | – |
| – | O=C(O)C1=C(/C=C/c2ccccc2)NC(=S)NC1c1ccccc1 (centres undefined) | inactive | – | – |
